The target in test [1] is T1, YpdA (Staphylococcus aureus, UniProt A0A0H2WWS2).
T1 construct: gene SACOL1520; full-length, His6-tagged, pET11b, E. coli BL21(DE3) pLysS, Ni-NTA purified, prereduced with DTT
Briefly: NADPH consumption at […] nm. The following applies: 12.5 uM YpdA, 40 uM BSSB, 500 uM NADPH, 20 mM Tris, 1.25 mM EDTA, pH 8.0. It counts as biochemical.

The target of test [2] is T1, YpdA. Briefly: UV-visible spectrum of purified enzyme. The format is binding. To be noted: co-purified flavin, absorbance peaks at 375 and 450 nm.

Each structure is given as a SMILES string.

The source of these data is publication PMC6591457, “Staphylococcus aureus Uses the Bacilliredoxin (BrxAB)/Bacillithiol Disulfide Reductase (YpdA) Redox Pathway to Defend Against Oxidative Stress Under Infections” (Frontiers in Microbiology, 2019).

T1 sequence (A0A0H2WWS2 entry or part of it): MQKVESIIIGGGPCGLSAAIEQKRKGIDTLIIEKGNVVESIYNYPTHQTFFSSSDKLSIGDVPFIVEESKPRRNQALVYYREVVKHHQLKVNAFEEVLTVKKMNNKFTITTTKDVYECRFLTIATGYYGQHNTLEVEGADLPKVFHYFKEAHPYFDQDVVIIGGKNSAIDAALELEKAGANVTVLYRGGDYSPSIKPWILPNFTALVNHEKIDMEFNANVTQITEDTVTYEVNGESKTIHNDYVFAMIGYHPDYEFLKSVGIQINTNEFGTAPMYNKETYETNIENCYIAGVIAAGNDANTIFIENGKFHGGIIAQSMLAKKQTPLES

With `N[C@@H](CSSC[C@H](N)C(=O)N[C@H]1[C@@H](O[C@@H](CC(=O)O)C(=O)O)O[C@H](CO)[C@@H](O)[C@@H]1O)C(=O)N[C@H]1[C@@H](O[C@@H](CC(=O)O)C(=O)O)O[C@H](CO)[C@@H](O)[C@@H]1O` [BSSB], the “NADPH consumption at 340 nm” value at YpdA [1] was “Incubation of YpdA protein with BSSB resulted in significant and fast consumption of NADPH”.

`Cc1cc2nc3c(=O)[nH]c(=O)nc-3n(C[C@H](O)[C@H](O)[C@H](O)COP(=O)(O)OP(=O)(O)OC[C@H]3O[C@@H](n4cnc5c(N)ncnc54)[C@H](O)[C@@H]3O)c2cc1C` [FAD]: the “UV-visible spectrum of purified enzyme” value on YpdA [2] is on record as “UV-visible spectrum revealed the presence of the FAD co-factor”.

With `NC(=O)C1=CN([C@@H]2O[C@H](COP(=O)(O)OP(=O)(O)OC[C@H]3O[C@@H](n4cnc5c(N)ncnc54)[C@H](OP(=O)(O)O)[C@@H]3O)[C@@H](O)[C@H]2O)C=CC1` [NADPH], the “NADPH consumption at 340 nm” value at YpdA [1] is on record as “Purified YpdA is able to reduce BSSB back to BSH with electrons from NADPH”.
